Source: ChEMBL document CHEMBL3351597, “Synthesis and activity of new triphenylphosphonium derivatives of betulin and betulinic acid against Schistosoma mansoni in vitro and in vivo” (Bioorg Med Chem, 2014)
The source made the active and inactive calls. The rule behind the calls is not given here.

How the values were obtained:
Schistosoma mansoni [1] = test: Antischistosomal activity against newly transformed Schistosoma mansoni assessed as decrease in viability after 72 hrs; assay type: functional, organism-based
Schistosoma mansoni [2] = test: Antischistosomal activity against newly transformed Schistosoma mansoni assessed as death at 8.33 microg/ml after 72 hrs; assay type: functional, organism-based
L6 = test: Cytotoxicity against rat L6 cells after 24 hrs by Resazurin dye; assay type: cell-based; conditions: L6, 24 h
Schistosoma mansoni [3] = test: Antischistosomal activity against Schistosoma mansoni infected in NMRI mouse assessed as mouse cured at 400 mg/kg, po treated after 49 days of infection measured after 21 days post treatment; assay type: functional, organism-based; parameters: dose 400 mg/kg
Schistosoma mansoni [4] = test: Antischistosomal activity against Schistosoma mansoni infected in NMRI mouse assessed as reduction of female worm burden at 400 mg/kg, po treated after 49 days of infection measured after 21 days post treatment; assay type: functional
Schistosoma mansoni [5] = test: Antischistosomal activity against Schistosoma mansoni infected in NMRI mouse assessed as reduction of total worm burden at 400 mg/kg, po treated after 49 days of infection measured after 21 days post treatment; assay type: functional
Schistosoma mansoni [6] = test: Antischistosomal activity against newly transformed Schistosoma mansoni assessed as death at 2.78 microg/ml after 72 hrs; assay type: functional, organism-based

| Compound | IC50 (Schistosoma mansoni [1]) | Activity (Schistosoma mansoni [2]) | Activity (Schistosoma mansoni [1]) | also measured |
| --- | --- | --- | --- | --- |
| COC(=O)[C@]12CC[C@@H](C(C)C)[C@@H]1[C@H]1CC[C@@H]3[C@@]4(C)C[C@H](CCC[P+](c5ccccc5)(c5ccccc5)c5ccccc5)[C@H](OC(C)=O)C(C)(C)[C@@H]4CC[C@@]3(C)[C@]1(C)CC2.[Br-] | 1.46 µg/mL | Active |  |  |
| CC(=O)O[C@H]1[C@@H](CCC[P+](c2ccccc2)(c2ccccc2)c2ccccc2)C[C@]2(C)[C@H]3CC[C@@H]4[C@H]5[C@H](C(C)C)CC[C@]5(C(=O)O)CC[C@@]4(C)[C@]3(C)CC[C@H]2C1(C)C |  |  | Active |  |
| COC(=O)[C@]12CC[C@@H](C(C)CI)[C@@H]1[C@H]1CC[C@@H]3[C@@]4(C)C[C@H](CCC[P+](c5ccccc5)(c5ccccc5)c5ccccc5)[C@H](OC(C)=O)C(C)(C)[C@@H]4CC[C@@]3(C)[C@]1(C)CC2.[I-] (stereo partly drawn) | 6.35 µg/mL |  |  | IC50 (L6): 1.65 µg/mL |
| COC(=O)[C@]12CC[C@@H](C(C)C)[C@@H]1[C@H]1CC[C@@H]3[C@@]4(C)C[C@H](CCC[P+](c5ccccc5)(c5ccccc5)c5ccccc5)[C@@H](OC(C)=O)C(C)(C)[C@@H]4CC[C@@]3(C)[C@]1(C)CC2.[Br-] | 1.37 µg/mL | Active |  |  |
| C=C(C[P+](c1ccccc1)(c1ccccc1)c1ccccc1)[C@@H]1CC[C@]2(COC(C)=O)CC[C@]3(C)[C@H](CC[C@@H]4[C@@]5(C)CC[C@H](OC(C)=O)C(C)(C)[C@@H]5CC[C@]43C)[C@@H]12.[Br-] | 0.64 µg/mL | Active |  | Activity (Schistosoma mansoni [3]): inactive; inhibition in vivo at 400 mg/kg (Schistosoma mansoni [4]): 20.3%; inhibition in vivo at 400 mg/kg (Schistosoma mansoni [5]): 22.2%; Activity (Schistosoma mansoni [6]): Active; IC50 (L6): 0.64 µg/mL |
| C=C(C[P+](c1ccccc1)(c1ccccc1)c1ccccc1)[C@@H]1CC[C@]2(C(=O)OC)CC[C@]3(C)[C@H](CC[C@@H]4[C@@]5(C)CC[C@H](OC(C)=O)C(C)(C)[C@@H]5CC[C@]43C)[C@@H]12.[Br-] | 0.76 µg/mL | Active |  | Activity (Schistosoma mansoni [3]): inactive; inhibition in vivo at 400 mg/kg (Schistosoma mansoni [4]): 24.8%; inhibition in vivo at 400 mg/kg (Schistosoma mansoni [5]): 21.9%; Activity (Schistosoma mansoni [6]): Active |
| COC(=O)[C@]12CC[C@@H](C(C)C)[C@@H]1[C@H]1CC[C@@H]3[C@@]4(C)C[C@H](CCC[P+](c5ccccc5)(c5ccccc5)c5ccccc5)[C@@H](O)C(C)(C)[C@@H]4CC[C@@]3(C)[C@]1(C)CC2 |  |  | Active |  |
| CC(=O)O[C@H]1[C@@H](CCC[P+](c2ccccc2)(c2ccccc2)c2ccccc2)C[C@]2(C)[C@H]3CC[C@@H]4[C@H]5[C@H](C(C)C)CC[C@]5(C(=O)OCc5ccccc5)CC[C@@]4(C)[C@]3(C)CC[C@H]2C1(C)C |  |  | Active |  |
| COC(=O)[C@]12CC[C@@H](C(C)C)[C@@H]1[C@H]1CC[C@@H]3[C@@]4(C)C[C@H](CCC[P+](c5ccccc5)(c5ccccc5)c5ccccc5)[C@H](O)C(C)(C)[C@@H]4CC[C@@]3(C)[C@]1(C)CC2 |  |  | Active |  |
